Structures can show the parent of a compound that is named as a salt.
Experiments:
Format in all cases: biochemical
[1] = target: T1, catalytic domain of human stromelysine (Homo sapiens, UniProt P08254); assay: Enzyme inhibition, catalytic domain of human stromelysine (fluorogenic substrate); details: hydroxamic acids up to and including Example 33; tris/HCl buffer pH=7.5; read-out: Stromelysine IC 50
T1 construct: enzymatic activity of the catalytic domains of human stomelysine and of neutrophil collagenase; made in house
Experimental: (§1) Preparation and determination of the enzymatic activity of the catalytic domains of human stomelysine and of neutrophil collagenase.
(§2) The two enzymes were prepared according to Ye et al., (Biochemistry 31 (1992) 11231-5). To measure the enzyme activity or enzyme inhibitor action, 70 μl of buffer solution and 10 μl of enzyme solution are incubated for 15 minutes with 10 μl of a 10% strength (v/v) aqueous dimethyl sulfoxide solution, which optionally contains the enzyme inhibitor. After addition of 10 μl of a 10% strength (v/v) aqueous dimethyl sulfoxide solution which contains 1 mmol/l of the substrate, the enzyme reaction is monitored by fluorescence spectroscopy (328 nm (ex)/393 nm(em)). The enzyme activity is shown as extinction increase/minute. […] The buffer solution contains 0.05% of Brij (Sigma, Deisenhofen, Germany) and also 0.1 mol/l of tris/HCl, 0.1 mol/l of NaCl, 0.01 mol/l of CaCl2 (pH=7.5) for the determination of the hydroxamic acids up to and including Example 33, or, for the determination of the carboxylic acids from Example 34, 0.1 mol/l of piperazine-N,N′-bis[2-ethanesulfonic acid] pH=6.5.
(§3) The enzyme solution contains 5 μg/ml of one of the enzyme domains prepared according to Ye et al. The substrate solution contains 1 mmol/l of the fluorogenic substrate (7-methoxycoumarin-4-yl)acetyl-Pro-Leu-Gly-Leu-3-(2′,4′-dinitrophenyl)-L-2,3-diaminopropionyl-Ala-Arg-NH2 (Bachem, Heidelberg, Germany).

[2] = target: T2, catalytic domain of neutrophil collagenase (Homo sapiens, UniProt P22894); assay: Enzyme inhibition, catalytic domain of neutrophil collagenase (fluorogenic substrate); details: hydroxamic acids up to and including Example 33; tris/HCl buffer pH=7.5; read-out: Neutrophil collagenase IC 50
T2 construct: enzymatic activity of the catalytic domains of human stomelysine and of neutrophil collagenase; made in house
Experimental: as §1, §2, §3

[3] = target: T3, catalytic domain of stromelysine-1 (Homo sapiens, UniProt P08254); assay: Proteoglycan degradation assay (bovine aggrecan, ELISA with antibody 5-D-4); details: bovine nasal proteoglycane, 60 ng stromelysine-1 catalytic domain, MES pH 6.0, RT 3 h
T3 construct: enzymatic activity of the catalytic domains of human stomelysine and of neutrophil collagenase; made in house
Experimental: In the proteoglycan degradation assay, the extent of the degradation of native bovine aggrecan, the most important proteoglycan of the cartilage, is measured. The released proteoglycan fragments are determined using the monoclonal antibody 5-D-4 which recognizes the keratan sulfate side-chains which are located at the carboxy terminal of the G2 domain of aggrecan. Thus, the assay detects primarily pathologically important degradations which take place in the interglobular domain of aggrecan.
After addition of compounds of the formula I and the enzyme in the form of the catalytic domain of stromelysine-1, the amount of hyaluronic acid-bound aggrecan which remains after degradation is measured. The more aggrecan is detected, the lower the residual activity of the enzyme.
Description of the Test Protocol:
Wells of 96 well microtiter plates (Nunc, Maxisorp) each containing 100 μl of hyaluronic acid solution (25 μg/ml of hyaluronic acid (Sigma) in PBS) are incubated at room temperature (RT) for 12 h. The hyaluronic acid solution is removed by suction and the remaining free protein binding sites of the wells are saturated with in each case […] of a 5% strength solution of bovine serum albumin (BSA), 0.05% of Tween20 in PBS at RT for 1 h. The wells are subsequently covered with proteoglycane by incubating the wells with 100 μl each of a solution of bovine nasal proteoglycane (ICI) (200 μg/ml in 1×PBS, 5 mg/ml of BSA, 0.05% of Tween20) at RT for 1 h. The wells are washed twice with 1×PBS, 0.1% Tween20 to remove the free proteoglycanes. Subsequently, for the actual assay, 60 ng of purified catalytic domain of Stromelysine-1 (for the recombinant expression and purification, see Ye et al. (1992)) plus corresponding concentrations of the inhibitor to be tested in 100 μl of degradation buffer (100 mM MES pH 6.0, 100 mM NaCl, 10 mM CaCl2, 0.05% of Brij) are pipetted into the wells and incubated at RT for 3 h. The wells are washed twice with 1×PBS, 0.1% of Tween20 and then incubated with 100 μl of a solution of the detection antibody (monoclonal antibody done 5-D-4 (ICI), immunoreactive with the keratan sulfate side-chains of the proteoglycane, dilution 1:1000 in 1×PBS, 5 mg/ml BSA, 0.05% Tween20). The wells are washed twice with 1×PBS, 0.1% of Tween20, after which the immune reaction of the bound detection antibodies is carried out using 100 μl per well of an antibody solution for detection (goat anti Maus IgG, labeled with peroxidase (Dianova), diluted 1:1000 in 1×PBS, 5 mg/ml of BSA, 0.05% of Tween20) at RT for 1 h. The wells are again washed twice (as above), and the color reaction is then initiated using 100 μl each of 2 mg/ml of ABTS, activated with H2O2. The reaction products are measured in an ELISA reader at a wavelength of […].

T3 sequence (P08254 100-272 limits assumed): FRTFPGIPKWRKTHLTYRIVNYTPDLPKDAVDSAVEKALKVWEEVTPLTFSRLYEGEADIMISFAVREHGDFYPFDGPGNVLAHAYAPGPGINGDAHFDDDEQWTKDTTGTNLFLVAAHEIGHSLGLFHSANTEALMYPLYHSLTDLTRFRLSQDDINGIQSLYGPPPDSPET
T1 sequence (P08254 100-272 limits assumed): as above
T2 sequence (P22894 100-262 limits assumed): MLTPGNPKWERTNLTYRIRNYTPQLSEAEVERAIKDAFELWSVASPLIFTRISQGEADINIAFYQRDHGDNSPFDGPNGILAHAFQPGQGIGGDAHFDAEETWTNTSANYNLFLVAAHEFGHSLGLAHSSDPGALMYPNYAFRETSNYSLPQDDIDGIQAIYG

Row | Structure (SMILES) | IC50 [1] | IC50 [2] | IC50 [3]
1 | O=C(NO)C1Cc2ccccc2CN1S(=O)(=O)c1ccc(-c2ccccc2)cc1 (stereo not drawn) [Example 2] | 20 nM | 0.2 nM | 85 nM
2 | O=C(Nc1ccc(S(=O)(=O)N2Cc3ccccc3C[C@@H]2C(=O)NO)cc1)OCc1ccccc1 [Example 9] | 400 nM | 800 nM | 1600 nM
3 | O=C(NO)[C@H]1Cc2ccccc2CN1S(=O)(=O)c1ccc(Oc2ccccc2)cc1 [Example 13c, R-2-(4-phenoxybenzenesulfonyl)-1,2,3,4-tetrahydroisoquinoline-3-hydroxamic acid] | 20 nM | 2 nM | 51 nM
4 | CN(C)c1ccc(Oc2ccc(S(=O)(=O)N3Cc4ccccc4C[C@@H]3C(=O)NO)cc2)cc1 [Example 14] | 30 nM | 2 nM | 6.7 nM
5 | O=C(c1ccccc1)c1ccc(S(=O)(=O)N2Cc3ccccc3C[C@@H]2C(=O)NO)cc1 [Example 18] | 30 nM | 3 nM | 41 nM
6 | CCOC(=O)Oc1ccc2c(c1)CN(S(=O)(=O)c1ccc(OC)cc1)[C@@H](C(=O)NO)C2 [Example 21] | 20 nM | 2 nM | 65 nM
7 | COc1ccc(S(=O)(=O)N2Cc3nc[nH]c3C[C@@H]2C(=O)NO)cc1 [Example 29, R-5-(4-methoxybenzenesulfonyl)-4,5,6,7-tetrahydro-1H-imidazo-(4,5-c)-pyridine-6-hydroxamic acid hydrochloride] | 20 nM | 4 nM | 25 nM

Source: patent US6815440B2, “Cyclic and heterocyclic N-substituted α-iminohydroxamic and -carboxylic acids” (Aventis Pharma Deutschland GmbH, priority 1995, dated 2004)
